From patent US8906925B2, “Pyrido[4,3-B]indoles containing rigid moieties” (Medivation Technologies, Inc., priority 2008, dated 2014)

Assays:
[1] = molecular target: human dopamine D2L receptor (Homo sapiens, UniProt P14416); experiment: Dopamine D2L radioligand binding ([3H]Spiperone); conditions: compound at 1 μM; […] [3H]Spiperone; read-out: Inhibition of ligand binding, Dopamine D2L (percent inhibition of specific binding)
From the text: Non-specific binding was estimated in the presence of […] Haloperidol. Receptor proteins were filtered and washed, the filters were then counted to determine [^3H]Spiperone specifically bound. […] Biochemical assay results are presented as the percent inhibition of specific binding in Table 9.

histamine receptor H1 = histamine receptor H1 (Homo sapiens, UniProt P35367); experiment: Histamine H1 radioligand binding ([3H]Pyrilamine); conditions: read-out: Histamine Binding (1 μM) H1, percent inhibition of specific binding, 1 μM
Summary of the method: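 Values are percent inhibition of specific [3H]pyrilamine (1.2 nM) binding with compounds at ≤1 μM (1% DMSO vehicle); 180 min incubation at 25 °C, pH 7.4 Tris buffer, on CHO-expressed human H1 receptor; 1 μM pyrilamine defined nonspecific binding, bound ligand counted after filtration.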

human dopamine D2L receptor, sequence (P14416 whole entry): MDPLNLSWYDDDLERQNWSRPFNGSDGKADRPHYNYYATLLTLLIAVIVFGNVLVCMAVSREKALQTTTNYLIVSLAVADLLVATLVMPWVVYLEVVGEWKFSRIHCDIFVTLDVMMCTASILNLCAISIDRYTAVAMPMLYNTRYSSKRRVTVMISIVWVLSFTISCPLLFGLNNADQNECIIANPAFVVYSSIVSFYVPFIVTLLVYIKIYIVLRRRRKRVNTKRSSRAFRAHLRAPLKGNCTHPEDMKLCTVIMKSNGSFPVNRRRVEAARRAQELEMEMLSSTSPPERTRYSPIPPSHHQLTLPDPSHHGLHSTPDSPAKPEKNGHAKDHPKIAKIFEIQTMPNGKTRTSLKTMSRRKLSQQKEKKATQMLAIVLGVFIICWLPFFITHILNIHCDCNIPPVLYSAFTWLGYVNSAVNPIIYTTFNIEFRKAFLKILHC
histamine receptor H1, sequence (P35367 whole entry): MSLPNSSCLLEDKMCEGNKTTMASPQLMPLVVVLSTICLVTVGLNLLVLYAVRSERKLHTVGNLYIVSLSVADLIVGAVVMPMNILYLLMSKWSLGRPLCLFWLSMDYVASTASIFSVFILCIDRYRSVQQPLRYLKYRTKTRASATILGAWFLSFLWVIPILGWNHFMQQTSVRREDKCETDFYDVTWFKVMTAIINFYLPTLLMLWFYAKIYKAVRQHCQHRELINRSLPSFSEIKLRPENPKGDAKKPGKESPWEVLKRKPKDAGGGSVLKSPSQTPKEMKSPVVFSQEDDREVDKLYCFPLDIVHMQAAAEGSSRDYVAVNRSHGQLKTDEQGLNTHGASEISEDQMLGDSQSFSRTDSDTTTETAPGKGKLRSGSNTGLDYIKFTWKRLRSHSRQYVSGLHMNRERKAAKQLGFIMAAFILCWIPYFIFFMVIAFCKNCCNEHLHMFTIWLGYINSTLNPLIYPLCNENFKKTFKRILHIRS

| inhibition at 1 µM [1] | inhibition at 1 µM (histamine receptor H1) | Structure (SMILES) |
| --- | --- | --- |
| 42% | -4% | C/C(=C\n1c2c(c3cc(N4CCCC4)ccc31)CN(C)CC2)c1ccncc1 [compound 446, (E)-2-methyl-5-(2-(pyridin-4-yl)prop-1-enyl)-8-(pyrrolidin-1-yl)-2,3,4,5-tetrahydro-1H-pyrido[4,3-b]indole] |
| 59% | -1% | C/C(=C\n1c2c(c3cc(NC4CC4)ccc31)CN(C)CC2)c1ccncc1 [compound 447, (E)-N-cyclopropyl-2-methyl-5-(2-(pyridin-4-yl)prop-1-enyl)-2,3,4,5-tetrahydro-1H-pyrido[4,3-b]indol-8-amine] |
| 79% | -10% | C/C(=C\n1c2c(c3cc(NC4CCC4)ccc31)CN(C)CC2)c1ccncc1 [compound 448, (E)-N-cyclobutyl-2-methyl-5-(2-(pyridin-4-yl)prop-1-enyl)-2,3,4,5-tetrahydro-1H-pyrido[4,3-b]indol-8-amine] |
| 59% | -7% | C/C(=C\n1c2c(c3cc(NCCO)ccc31)CN(C)CC2)c1ccncc1 [compound 449, (E)-2-(2-methyl-5-(2-(pyridin-4-yl)prop-1-enyl)-2,3,4,5-tetrahydro-1H-pyrido[4,3-b]indol-8-ylamino)ethanol] |
| 35% | 43% | C/C(=C\n1c2c(c3cc(N(C)C)ccc31)CN(C)CC2)c1ccncc1 [compound 450, (E)-N,N,2-trimethyl-5-(2-(pyridin-4-yl)prop-1-enyl)-2,3,4,5-tetrahydro-1H-pyrido[4,3-b]indol-8-amine] |
| 70% | 99% | Cc1ccc2c(c1)c1c(n2/C=C(\F)c2cccs2)CCN(C)C1 [compound 451] |
| 71% | 18% | C/C(=C\n1c2c(c3cc(C)ccc31)CN(C)CC2)c1cc(F)c(O)c(F)c1 [compound 452, (E)-4-(1-(2,8-dimethyl-3,4-dihydro-1H-pyrido[4,3-b]indol-5(2H)-yl)prop-1-en-2-yl)-2,6-difluorophenol] |
| 51% | 26% | Cc1ccc2c(c1)c1c(n2/C=C(/c2ccccc2)c2ccncc2)CCN(C)C1 [compound 453, (Z)-2,8-dimethyl-5-(2-phenyl-2-(pyridin-4-yl)vinyl)-2,3,4,5-tetrahydro-1H-pyrido[4,3-b]indole] |
| 80% | 21% | COc1ccc(/C(C)=C/n2c3c(c4cc(Cl)ccc42)CN(C)CC3)cn1 [compound 454, (E)-8-chloro-5-(2-(6-methoxypyridin-3-yl)prop-1-enyl)-2-methyl-2,3,4,5-tetrahydro-1H-pyrido[4,3-b]indole] |
| 56% | 13% | Cc1ccc2c(c1)c1c(n2/C=C(\c2ccccc2)c2ccncc2)CCN(C)C1 [compound 455, (E)-2,8-dimethyl-5-(2-phenyl-2-(pyridin-4-yl)vinyl)-2,3,4,5-tetrahydro-1H-pyrido[4,3-b]indole] |

The remaining lines, values behind:

| Structure (SMILES) | inhibition at 1 µM [1] | inhibition at 1 µM (histamine receptor H1) |
| --- | --- | --- |
| CNC(=O)c1ccc(/C(F)=C(/c2ccc(C(=O)NC)c(F)c2)n2c3c(c4cc(C)ccc42)CN(C)CC3)cc1F [compound 423, (E)-4,4′-(1-(2,8-dimethyl-3,4-dihydro-1H-pyrido[4,3-b]indol-5(2H)-yl)-2-fluoroethene-1,2-diyl)bis(2-fluoro-N-methylbenzamide)] | -10% | 31% |
| CNC(=O)c1ccc(/C(F)=C/n2c3c(c4cc(C)ccc42)CN(C)CC3)cc1F [compound 424, (Z)-4-(2-(2,8-dimethyl-3,4-dihydro-1H-pyrido[4,3-b]indol-5(2H)-yl)-1-fluorovinyl)-2-fluoro-N-methylbenzamide] | 20% | 43% |
| Cc1ccc2c(c1)c1c(n2/C(=C(/F)c2ccncc2)c2ccncc2)CCN(C)C1 [compound 425, (E)-5-(2-fluoro-1,2-di(pyridin-4-yl)vinyl)-2,8-dimethyl-2,3,4,5-tetrahydro-1H-pyrido[4,3-b]indole] | 6% | 4% |
| Cc1ccc2c(c1)c1c(n2/C=C(\F)c2ccncc2)CCN(C)C1 [compound 426, (Z)-5-(2-fluoro-2-(pyridin-4-yl)vinyl)-2,8-dimethyl-2,3,4,5-tetrahydro-1H-pyrido[4,3-b]indole] | 32% | 50% |
| CC(=O)CN1CCc2c(c3cc(C)ccc3n2/C=C(\C)c2ccncc2)C1 [compound 427, (E)-1-(8-methyl-5-(2-(pyridin-4-yl)prop-1-enyl)-3,4-dihydro-1H-pyrido[4,3-b]indol-2(5H)-yl)propan-2-one] | 17% | 1% |
| C/C(=C\c1ccccc1)n1c2c(c3cc(C)ccc31)CN(C)CC2 [compound 428, (E)-2,8-dimethyl-5-(1-phenylprop-1-en-2-yl)-2,3,4,5-tetrahydro-1H-pyrido[4,3-b]indole] | 57% | 97% |
| C/C(=C/c1ccccc1)n1c2c(c3cc(C)ccc31)CN(C)CC2 [compound 429, (Z)-2,8-dimethyl-5-(1-phenylprop-1-en-2-yl)-2,3,4,5-tetrahydro-1H-pyrido[4,3-b]indole] | 30% | 101% |
| COc1ccc(/C(F)=C/n2c3c(c4cc(C)ccc42)CN(C)CC3)cn1 [compound 430, (Z)-5-(2-fluoro-2-(6-methoxypyridin-3-yl)vinyl)-2,8-dimethyl-2,3,4,5-tetrahydro-1H-pyrido[4,3-b]indole] | 25% | 72% |
| CNc1ccc2c(c1)c1c(n2/C=C(\C)c2ccc(F)cc2)CCN(C)C1 [compound 431, (E)-5-(2-(4-fluorophenyl)prop-1-enyl)-N,2-dimethyl-2,3,4,5-tetrahydro-1H-pyrido[4,3-b]indol-8-amine] | 80% | 33% |
| CCCCNc1ccc2c(c1)c1c(n2/C=C(\C)c2ccc(F)cc2)CCN(C)C1 [compound 432, (E)-N-butyl-5-(2-(4-fluorophenyl)prop-1-enyl)-2-methyl-2,3,4,5-tetrahydro-1H-pyrido[4,3-b]indol-8-amine] | 79% | 46% |
| CNc1ccc2c(c1)c1c(n2/C=C(\C)c2ccncc2)CCN(C)C1 [compound 433, (E)-N,2-dimethyl-5-(2-(pyridin-4-yl)prop-1-enyl)-2,3,4,5-tetrahydro-1H-pyrido[4,3-b]indol-8-amine] | 61% | 13% |
| CNC(=O)c1ccc(/C(C)=C/n2c3c(c4cc(C)ccc42)CN(C)CC3)cc1 [compound 435] | 71% | 11% |
| C/C(=C\n1c2c(c3cc(C)ccc31)CN(C)CC2)c1ccc(C(=O)N(C)C)cc1 [compound 436] | 69% | 12% |
| C/C(=C\n1c2c(c3cc(N4CCN(C)CC4)ccc31)CN(C)CC2)c1ccncc1 [compound 437, (E)-2-methyl-8-(4-methylpiperazin-1-yl)-5-(2-(pyridin-4-yl)prop-1-enyl)-2,3,4,5-tetrahydro-1H-pyrido[4,3-b]indole] | 15% | 44% |
| Cc1ccc2c(c1)c1c(n2/C=C(\F)c2cscn2)CCN(C)C1 [compound 438, (Z)-4-(2-(2,8-dimethyl-3,4-dihydro-1H-pyrido[4,3-b]indol-5(2H)-yl)-1-fluorovinyl)thiazole] | 17% | 92% |
| CC(=O)N(C)c1ccc2c(c1)c1c(n2/C=C(\C)c2ccncc2)CCN(C)C1 [compound 439, (E)-N-methyl-N-(2-methyl-5-(2-(pyridin-4-yl)prop-1-enyl)-2,3,4,5-tetrahydro-1H-pyrido[4,3-b]indol-8-yl)acetamide] | 16% | 9% |
| COCCNc1ccc2c(c1)c1c(n2/C=C(\C)c2ccncc2)CCN(C)C1 [compound 440] | 16% | 4% |
| COc1ccc(/C(C)=C/n2c3c(c4cc(C)ccc42)CN(C)CC3)cn1 [compound 441, (E)-5-(2-(6-methoxypyridin-3-yl)prop-1-enyl)-2,8-dimethyl-2,3,4,5-tetrahydro-1H-pyrido[4,3-b]indole] | 64% | 91% |
| C/C(=C\n1c2c(c3cc(N(C)C)ccc31)CN(C)CC2)c1ccc(F)cc1 [compound 442, (E)-5-(2-(4-fluorophenyl)prop-1-enyl)-N,N,2-trimethyl-2,3,4,5-tetrahydro-1H-pyrido[4,3-b]indol-8-amine] | 77% | 29% |
| CC(=O)N(C)c1ccc2c(c1)c1c(n2/C=C(\C)c2ccc(F)cc2)CCN(C)C1 [compound 443, (E)-N-(5-(2-(4-fluorophenyl)prop-1-enyl)-2-methyl-2,3,4,5-tetrahydro-1H-pyrido[4,3-b]indol-8-yl)-N-methylacetamide] | 92% | -5% |
| CCCCNc1ccc2c(c1)c1c(n2/C=C(\C)c2ccncc2)CCN(C)C1 [compound 444, (E)-N-butyl-2-methyl-5-(2-(pyridin-4-yl)prop-1-enyl)-2,3,4,5-tetrahydro-1H-pyrido[4,3-b]indol-8-amine] | 36% | -13% |
| C/C(=C\n1c2c(c3cc(N4CCCCC4)ccc31)CN(C)CC2)c1ccncc1 [compound 445, (E)-2-methyl-8-(piperidin-1-yl)-5-(2-(pyridin-4-yl)prop-1-enyl)-2,3,4,5-tetrahydro-1H-pyrido[4,3-b]indole] | 20% | 1% |
